How the values were obtained:
[1] = biological target: T1, Full-length human Chk1 protein (Homo sapiens, UniProt O14757); experiment: Kinase HTRF biochemical assay (HTRF KinEASE), Chk1 enzyme activity; conditions: full-length human Chk1, ATP 1 mM, 60 minutes at room temperature
T1 construct: purchased Carna Biosciences, Inc. 02-117
T1 sequence (O14757 1-476): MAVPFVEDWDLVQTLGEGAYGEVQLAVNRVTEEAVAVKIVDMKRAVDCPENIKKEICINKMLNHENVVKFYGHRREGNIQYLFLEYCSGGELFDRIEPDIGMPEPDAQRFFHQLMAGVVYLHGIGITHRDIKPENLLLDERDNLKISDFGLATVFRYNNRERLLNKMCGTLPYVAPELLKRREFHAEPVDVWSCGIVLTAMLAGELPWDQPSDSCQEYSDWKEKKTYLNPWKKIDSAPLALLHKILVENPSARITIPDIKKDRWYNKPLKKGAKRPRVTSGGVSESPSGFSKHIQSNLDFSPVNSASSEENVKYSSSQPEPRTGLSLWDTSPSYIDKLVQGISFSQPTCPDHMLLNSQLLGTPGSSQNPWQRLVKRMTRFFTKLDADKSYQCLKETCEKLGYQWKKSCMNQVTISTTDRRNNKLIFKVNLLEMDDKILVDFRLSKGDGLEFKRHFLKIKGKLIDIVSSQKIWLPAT
Description: Example A: Kinase HTRF Biochemical Assay
Chk1 enzyme activity was measured using an HTRF KinEASE assay (Cisbio, catalog no. 62ST1PEC). Full-length human Chk1 protein (GenBank accession number NP_001265.1) was obtained from Carna Biosciences, Inc. (Kobe, Japan, catalog no. 02-117). The enzyme reaction was carried out in assay buffer containing (final concentrations): Chk1 enzyme (0.012 ng/μL), MgCl2 (5 mM) and DTT (1 mM). To determine compound dose response, DMSO stock solutions were serially diluted in a 10-point concentration series in duplicate. Compound solution (50 nL) was added to 384-well assay plates (Greiner, catalog no. 784075). To each well containing compound solution was added assay buffer solution (5 μL). Plates were centrifuged at 1000 rpm for 1 minute, then incubated at room temperature for 10 minutes. The reaction was started by addition of substrate buffer (5 μL/well) containing (final concentrations): STK substrate 1-biotin (120 nM) and ATP (1 mM). Assay plates were centrifuged at 1000 rpm for 1 minute, then incubated at room temperature for 60 minutes. The reaction was stopped by addition of detection buffer (Cisbio, 10 μL) containing (final concentrations): STK antibody-cryptate (0.25 nM) and streptavidin-XL665 (7.5 nM). Plates were centrifuged at 1000 rpm for 1 minute, then incubated at 25° C. for 2 hours. HTRF signal was read on an EnVision multimode plate reader […] in HTRF mode. Data were fit to dose-response curves using XLfit (IDBS, Surrey, UK) or Prism (GraphPad Software, La Jolla, Calif., US) to calculate IC50 values for each compound tested.

[2] = system: p-CHK1 (Ser345); experiment: AlphaLISA SureFire Ultra p-CHK1 (Ser345) cellular assay in HT29 cells; assay type: cell-based; conditions: Homo sapiens, HT-29, 16 h at 37° C.
Description: Example B: AlphaLisa Cellular Assay
Compound activity in cells was measured using an AlphaLISA® SureFire® Ultra™ p-CHK1 (Ser345) assay (Perkin Elmer, catalog no. ALSU-PCHK1-A10K). HT29 cells were cultured in McCoy 5A medium with 10% FBS and 1% penicillin-streptomycin and seeded to 96-well plates (Corning, catalog no. 3599). Compounds were serially diluted in DMSO over a 10-point dose range with 3-fold dilution and to each well containing cells was added compound solution. Plates were centrifuged at 1000 rpm for 30 seconds. Plates were incubated at 37° C. for 16 h. Supernatant was removed by flicking the plate against a paper towel. Wells were washed once with PBS solution. To each well was added freshly prepared lysis buffer and plates were agitated on a plate shaker at 400 rpm for 30 min. The 96-well cell plates were centrifuged at 1500 rpm for 1 minute. From each well was transferred 10 μL of the lysates to a 384-well Optiplate™ (Perkin Elmer, catalog no. 6007290). To each well was added Acceptor Mix (5 μL) and the plates were sealed and wrapped in foil. Plates were agitated on a plate shaker for 2 minutes, then incubated at room temperature for 1 h. To each well was added Donor Mix (5 μL) and the plates were sealed and wrapped in foil. Plates were agitated on a plate shaker for 2 minutes, then incubated at room temperature for 1 h. AlphaLisa signal was read on an EnVision multimode plate reader (Perkin Elmer). Data were fit to dose-response curves using XLfit (IDBS, Surrey, UK) or Prism (GraphPad Software, La Jolla, Calif., US) to calculate IC50 values for each compound tested.

| SMILES | IC50 [1] [nM] | IC50 [2] [nM] |
| --- | --- | --- |
| Cc1cc(F)c(-c2cc(Nc3cnc(C#N)cn3)n[nH]2)c(O[C@@H]2CC[C@@H](N)C2)c1 [Example 5-1, 5-((5-(2-(((1R,3R)-3-aminocyclopentyl)oxy)-6-fluoro-4-methylphenyl)-1H-pyrazol-3-yl)amino)pyrazine-2-carbonitrile] | ≤ 10 | ≤ 50 |
| COc1cccc(O[C@H]2CC[C@H](N)CC2)c1-c1cc(Nc2cnc(C#N)cn2)n[nH]1 [Example 1-1, 5-((5-(2-(((lr,4r)-4-aminocyclohexyl)oxy)-6-methoxyphenyl)-1H-pyrazol-3-yl)amino)pyrazine-2-carbonitrile] | ≤ 10 | 50 to 100 |
| Cc1ccc(O[C@@H]2CC[C@H](N)C2)c(-c2cc(Nc3cnc(C#N)cn3)n[nH]2)n1 [Example 1-57] | ≤ 10 | 50 to 100 |
| N#Cc1cnc(Nc2cc(-c3ncccc3O[C@H]3CC[C@@H](N)C3)[nH]n2)cn1 [Example 3-42, 5-((5-(3-(((1S,3R)-3-aminocyclopentyl)oxy)pyridin-2-yl)-1H-pyrazol-3-yl)amino)pyrazine-2-carbonitrile] | 10 to 100 | 100 to 500 |
| N#Cc1cnc(Nc2cc(-c3c(F)cccc3O[C@@H]3CC[C@@H](N)C3)[nH]n2)cn1 [Example 1-44, 5-((5-(2-(((1R,3R)-3-aminocyclopentyl)oxy)-6-fluorophenyl)-1H-pyrazol-3-yl)amino)pyrazine-2-carbonitrile] | ≤ 10 | ≤ 50 |
| N#Cc1cnc(Nc2cc(-c3nc(C4CC4)ccc3O[C@@H]3CC[C@H](N)C3)[nH]n2)cn1 [Example 4-5, 5-((5-(3-(((1R,3S)-3-aminocyclopentyl)oxy)-6-cyclopropylpyridin-2-yl)-1H-pyrazol-3-yl)amino)pyrazine-2-carbonitrile] | ≤ 10 | ≤ 50 |
| N#Cc1cnc(Nc2cc(-c3ccccc3O[C@H]3C[C@@H](N)C3)[nH]n2)cn1 [Example 1-10, 5-((5-(2-((1s,3s)-3-aminocyclobutoxy)phenyl)-1H-pyrazol-3-yl)amino)pyrazine-2-carbonitrile] | 100 to 500 | > 1000 |
| COc1cccc(O[C@H]2C[C@H](N)C2)c1-c1cc(Nc2cnc(C#N)cn2)n[nH]1 [Example 1-5, 5-((5-(2-((1r,3r)-3-aminocyclobutoxy)-6-methoxyphenyl)-1H-pyrazol-3-yl)amino)pyrazine-2-carbonitrile] | ≤ 10 | ≤ 50 |
| COc1cccc(O[C@@H]2CCCC[C@H](N)C2)c1-c1cc(Nc2cnc(C#N)cn2)n[nH]1 [Example 3-8, 5-((5-(2-(((1R,3S)-3-aminocycloheptyl)oxy)-6-methoxyphenyl)-1H-pyrazol-3-yl)amino)pyrazine-2-carbonitrile] | ≤ 10 | ≤ 50 |
| CCCc1ccc(O[C@@H]2CC[C@H](N)C2)c(-c2cc(Nc3cnc(C#N)cn3)n[nH]2)n1 [Example 3-47, 5-((5-(3-(((1R,3S)-3-aminocyclopentyl)oxy)-6-propylpyridin-2-yl)-1H-pyrazol-3-yl)amino)pyrazine-2-carbonitrile] | ≤ 10 | 50 to 100 |
| Cc1ccc(O[C@H]2CC[C@H](N)CC2)c(-c2cc(Nc3cnc(C#N)cn3)n[nH]2)n1 [Example 1-56, 5-((5-(3-(((1r,4r)-4-aminocyclohexyl)oxy)-6-methylpyridin-2-yl)-1H-pyrazol-3-yl)amino)pyrazine-2-carbonitrile] | ≤ 10 | 100 to 500 |
| CN[C@@H]1CC[C@@H](Oc2ccccc2-c2cc(Nc3cnc(C#N)cn3)n[nH]2)C1 [Example 1-42, 5-((5-(2-(((1R,3R)-3-(methylamino)cyclopentyl)oxy)phenyl)-1H-pyrazol-3-yl)amino)pyrazine-2-carbonitrile] | 10 to 100 | 50 to 100 |
| COc1cc(F)cc(O[C@@H]2CC[C@H](N)C2)c1-c1cc(Nc2cnc(C#N)cn2)n[nH]1 [Example 1-28, 5-((5-(2-(((1R,3S)-3-aminocyclopentyl)oxy)-4-fluoro-6-methoxyphenyl)-1H-pyrazol-3-yl)amino)pyrazine-2-carbonitrile] | ≤ 10 | ≤ 50 |
| N#Cc1cnc(Nc2cc(-c3c(F)cccc3O[C@@H]3CC[C@H](N)C3)[nH]n2)cn1 [Example 1-22, 5-((5-(2-(((1R,3S)-3-aminocyclopentyl)oxy)-6-fluorophenyl)-1H-pyrazol-3-yl)amino)pyrazine-2-carbonitrile] | 10 to 100 | 100 to 500 |
| N#Cc1cnc(Nc2cc(-c3c(F)cccc3O[C@H]3CCCC[C@@H](N)C3)[nH]n2)cn1 [Example 3-36, 5-((5-(2-(((1S,3R)-3-aminocycloheptyl)oxy)-6-fluorophenyl)-1H-pyrazol-3-yl)amino)pyrazine-2-carbonitrile] | ≤ 10 |  |
| COc1cccc(O[C@@H]2CCC[C@@H](N)C2)c1-c1cc(Nc2cnc(C#N)cn2)n[nH]1 [Example 1-64, 5-((5-(2-(((1R,3R)-3-aminocyclohexyl)oxy)-6-methoxyphenyl)-1H-pyrazol-3-yl)amino)pyrazine-2-carbonitrile] | > 1000 |  |
| N#Cc1cnc(Nc2cc(-c3c(OC4CCC4)cccc3O[C@H]3CC[C@H](N)CC3)[nH]n2)cn1 [Example 1-34, 5-((5-(2-(((1r,4r)-4-aminocyclohexyl)oxy)-6-cyclobutoxyphenyl)-1H-pyrazol-3-yl)amino)pyrazine-2-carbonitrile] | 100 to 500 |  |
| Cc1cc(Cl)c(O[C@@H]2CC[C@H](N)C2)c(-c2cc(Nc3cnc(C#N)cn3)n[nH]2)n1 [Example 3-53, 5-((5-(3-(((1R,3S)-3-aminocyclopentyl)oxy)-4-chloro-6-methylpyridin-2-yl)-1H-pyrazol-3-yl)amino)pyrazine-2-carbonitrile] | > 1000 |  |
| COc1cccc(OC[C@H]2C[C@H](N)C2)c1-c1cc(Nc2cnc(C#N)cn2)n[nH]1 [Example 1-3] | > 1000 |  |
| Cc1cc(-c2cc(Nc3cnc(C#N)cn3)n[nH]2)c(O[C@@H]2CC[C@H](N)C2)cc1F [Example 3-17, 5-((5-(2-(((1R,3S)-3-aminocyclopentyl)oxy)-4-fluoro-5-methylphenyl)-1H-pyrazol-3-yl)amino)pyrazine-2-carbonitrile] | 10 to 100 |  |
| CC(C)Oc1cccc(O[C@@H]2CC[C@H](N)C2)c1-c1cc(Nc2cnc(C#N)cn2)n[nH]1 [Example 1-24, 5-((5-(2-(((1R,3S)-3-aminocyclopentyl)oxy)-6-isopropoxyphenyl)-1H-pyrazol-3-yl)amino)pyrazine-2-carbonitrile] | > 1000 |  |
| COc1cccc(OC[C@H]2C[C@@H](N)C2)c1-c1cc(Nc2cnc(C#N)cn2)n[nH]1 [Example 1-2, 5-((5-(2-(((1s,3s)-3-aminocyclobutyl)methoxy)-6-methoxyphenyl)-1H-pyrazol-3-yl)amino)pyrazine-2-carbonitrile] | > 1000 |  |
| CN[C@@H]1CC[C@@H](Oc2ccc(Cl)c(F)c2-c2cc(Nc3cnc(C(N)=O)cn3)n[nH]2)C1 [Example 3-23, 5-((5-(3-chloro-2-fluoro-6-(((1R,3R)-3-(methylamino)cyclopentyl)oxy)phenyl)-1H-pyrazol-3-yl)amino)pyrazine-2-carboxamide] | > 1000 |  |

— US11707462B2, “Checkpoint kinase 1 (CHK1) inhibitors and uses thereof” (Boundless Bio, Inc., priority 2021, dated 2023)
